The numbers were not newly measured in US10640830B2, “Drug selection for non-small cell lung cancer therapy” (NESTEC S.A., priority 2013, dated 2020), which cites them from elsewhere.

The conditions of series [1]: in vivo.
The conditions of series [2]: early Phase I evaluation.
Another series deals with human xenograft models. The conditions noted are these: dosed orally in human xenograft models. On the technique in general: Xenograft models place foreign cells or tissue in a host animal.

Regarding `COc1cc2c(Oc3ccc(NC(=O)C4(C(=O)Nc5ccc(F)cc5)CC4)cc3F)ccnc2cc1OCCCN1CCOCC1` [GSK 1363089/XL880], the oral bioavailability result in series [1] is “good oral bioavailability”. Besides, the “CYP450 substrate / inhibitor / inducer” value with CYP450 is listed as “CYP450 substrate, but not an inhibitor or inducer”.
With `CN(C[C@@H]1COCCO1)S(=O)(=O)Nc1ccc2ccc3ncc(-c4cnn(C)c4)cc3c(=O)c2c1` [MK-2461], the tolerability result in series [2] is “well tolerated”.
For `Cn1cc(-c2ccc3nnc(Sc4ccc5ncccc5c4)n3n2)cn1` [SGX523], in the series on human xenograft models, the antitumor activity result is “potent antitumor activity” and the toxicity entry was “no overt toxicity”.
